Entries after “also recorded” stand apart in the source; their conditions may differ.
How the values were obtained:
human Glucagon-R = target: T1, human Glucagon-R (Homo sapiens, UniProt P47871); assay: Glucagon receptor efficacy assay (cAMP, HEK293 cells); format: cell-based; details: read-out: GLUR EC50
T1 construct: expressed in transfected cells
Method: The 5′-end primers additionally encoded a near Kozak consensus sequence to ensure efficient translation.
48 hr after transfection cells were seeded for limited dilution cloning and selected with 1 mg/ml G418 in the culture medium.
On the day of analysis, growth medium was removed and the cells washed once with 200 μl Tyrode buffer. Cells were incubated in 100 μl Tyrode buffer containing increasing concentrations of test peptides, 100 μM IBMX, and 6 mM glucose for 15 min at 37° C. The reaction was stopped by addition of 25 μl 0.5 M HCl and incubated on ice for 60 min. The cAMP content was estimated using the FlashPlate® cAMP kit from Perkin-Elmer.

[1] = 28 day treatment of diet induced obese (DIO) mice: body weight gain; format: in vivo
Method: Four weeks before drug treatments, C57Bl/6 male mice (7 weeks) (10-12 animals in each group) were put on high fat diet (HFD) and their day-night cycle reversed with lights On/Off at 2000/0800 hour. Experimental animals were conditioned to treatment by daily injections (s.c.) of 0.1 ml vehicle and acclimatized to handling by weighing them twice a week one week before start of drug administrations. The day before start of experiment, mice were stratified into groups with similar body weight (BW) and the next day groups of stratified mice were treated (b.i.d.; s.c.) with ZP2653 (SEQ ID NO: 4) (500 nmol/kg)), or vehicle (PBS, pH 7.4, 2.5 μl/g BW). A non-obese control group maintained on regular chow was treated with vehicle in the same treatment regime as the DIO groups. Body weights were recorded daily and used to administer the body weight-corrected doses of peptide throughout the study. Animals were fasted overnight before sacrifice. An eye blood sample (0.6 ml EDTA) was obtained the following morning immediately before cervical dislocation. Blood plasma samples were stored at −80° C. until analyzed for cholesterol, HDL and LDL using commercially available kits. Body weight gains throughout the treatment period were calculated for each animal by subtracting its weight at the initiation of treatment. […]

[2] = Oral glucose tolerance test (OGTT) in db/db mice; format: in vivo; details: 45 nmol/kg i.p.
Method: The animals were kept fasted during the experiment to prevent confounding food intake. Fifteen minutes later an oral dose of glucose (1 g/kg in 5 ml/kg) was given and BG levels were measured at t=30 min, t=60 min, t=120 min and t=240 min.
Difference from baseline (t=0) was calculated for each time point and AUC0-240 min values were determined. Statistical analyses of AUC values by one-way ANOVA and Dunnetts post-hoc analyses were performed with GraphPad Prism version 4. Differences were considered significant at the p<0.05 level.

[3] = test system: primary rat adipocyte cultures; format: cell-based
Method: Adipocytes were isolated from epididymal fat dissected from normal young adult Sprague-Dawley rats. The fat lumps were minced, incubated and shaken (220 rpm) with collagenase (1 mg/ml) in Krebs-Ringer buffer containing 4% BSA (KRB-BSA) for 60 minutes at 37° C. The suspension was filtered through a nylon filter (160 μm pore size) and the filtrate centrifuged at 200×g for 3 min. The subjacent medium beneath the upper floating layer of adipocytes was removed with a Pasteur-pipette. The adipocytes were washed 3 times in KRB-BSA buffer by re-suspension and centrifugation. The adipocytes were re-suspended in KRB-BSA, mixed, incubated in and shaken with test compounds in 96-deep well plates (50,000 cells/well) in a total volume of 1 ml at 37° C. for 60 min. The plates were placed on ice for at least 10 min after incubation followed by centrifugation at 200×g for 3 min. 300 μl of the buffer beneath the adipocyte layer were collected in a 96-deep well plate. This process was repeated two more times and the 3 extracts collected from each culture pooled together. The glycerol formed by the lipolysis in the adipocyte cultures was measured by adding free glycerol reagent (200 μl) to aliquots (25 μl) of adipocyte extract, incubate at room temperature for 15 min, and measure the absorbance at 540 nm.

[4] = 28 day treatment of DIO mice: plasma cholesterol, HDL and LDL; format: in vivo; details: 4 weeks b.i.d., compared to vehicle
Method: Four weeks before drug treatments, C57Bl/6 male mice (7 weeks) (10-12 animals in each group) were put on high fat diet (HFD) and their day-night cycle reversed with lights On/Off at 2000/0800 hour. Experimental animals were conditioned to treatment by daily injections (s.c.) of 0.1 ml vehicle and acclimatized to handling by weighing them twice a week one week before start of drug administrations. […] A non-obese control group maintained on regular chow was treated with vehicle in the same treatment regime as the DIO groups. Body weights were recorded daily and used to administer the body weight-corrected doses of peptide throughout the study. Animals were fasted overnight before sacrifice. An eye blood sample (0.6 ml EDTA) was obtained the following morning immediately before cervical dislocation. Blood plasma samples were stored at −80° C. until analyzed for cholesterol, HDL and LDL using commercially available kits. Body weight gains throughout the treatment period were calculated for each animal by subtracting its weight at the initiation of treatment.
Statistical analyses of data on body weight gain and cholesterols among treatments by 2-way ANOVA with repeated measures and Bonferoni post-hoc analyses were performed with GraphPad Prism version 4. Differences were considered significant at the p<0.05 level.

T1 sequence (P47871 26-477): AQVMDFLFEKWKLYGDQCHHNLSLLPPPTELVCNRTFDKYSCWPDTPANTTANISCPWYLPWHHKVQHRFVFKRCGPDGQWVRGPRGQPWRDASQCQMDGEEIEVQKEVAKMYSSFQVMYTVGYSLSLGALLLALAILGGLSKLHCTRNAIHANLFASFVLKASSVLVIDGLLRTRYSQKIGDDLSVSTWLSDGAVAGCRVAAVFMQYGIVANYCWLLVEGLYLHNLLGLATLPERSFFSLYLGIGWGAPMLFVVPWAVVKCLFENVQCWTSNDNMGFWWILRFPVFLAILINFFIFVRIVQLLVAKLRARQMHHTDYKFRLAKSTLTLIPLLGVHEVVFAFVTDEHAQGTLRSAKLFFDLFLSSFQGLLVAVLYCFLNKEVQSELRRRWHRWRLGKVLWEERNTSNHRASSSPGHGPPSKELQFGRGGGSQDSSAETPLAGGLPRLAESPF

| Substance | EC50 (human Glucagon-R) [nM] | effect on body weight gain ([1]; DIO mice on HFD, 500 nmol/kg b.i.d. s.c., 28 days, versus vehicle) | effect on fat deposition ([1]; DIO mice, 4 weeks treatment) | improvement of glucose tolerance (decrease in Area Under the curve (AUC)) ([2]; AUC0-240 min) [%] | effect on oral glucose tolerance ([2]; OGTT) | EC50 [3] [nM] | lipolysis potency relative to OXM ([3]; primary adipocyte cultures) [times] | lipolysis potency relative to glucagon ([3]; primary adipocyte cultures) | effect on HDL/LDL ratios [4] | effect on concentrations of LDL cholesterol [4] |
| --- | --- | --- | --- | --- | --- | --- | --- | --- | --- | --- |
| H-HSQGTFTSDYSLYLDSRRAKDFIEWLERA-NH2 [Compound L006-0050] | 0.1 |  |  |  |  |  |  |  |  |  |
| H-HSQGTFTSDYSLYLDSRRAKDFIEWLESA-NH2 [ZP2653] |  | decreased body weight gain to a level similar to that observed with chow feeding; also recorded: decreased body weight gain significantly | significantly decreased fat deposition | 39.5 | significantly improved glucose tolerance | 3.6 | 50 | equipotent to glucagon | significant | significant effect |
